Legend:
Type in all cases: cell-based
HIV-1 IIIB = test: HIV-1 infection assay using MT-2 cells; conditions: Human immunodeficiency virus 1, IIIB, MT2, read-out: EC50 IIIB
[1] = system: HIV-1 A17 (K103N and Y181C); test: microbe, parasite or virus in culture; conditions: Human immunodeficiency virus 1, MT2, read-out: EC50 A17
MT-2 cells = system: MT-2 cells
HIV-1 NL4-3 = test: Inhibition of HIV-1 infection of TZM-bl cells; conditions: wild-type NL4-3

SMILES	EC50 (HIV-1 IIIB)	EC50 [1]	SI (selective index) CC50/EC50(IIIB) (MT-2 cells)	fold less potent than the corresponding bromo/methoxy-DAANs (14c and 14d) (HIV-1 NL4-3)
CC(=O)OCc1cc(N)c(Nc2ccc(C#N)cc2)cc1Oc1c(C)cc(CCC#N)cc1C [Compound 6h, 4-Acetoxymethyl-5-[4″-(2-cyanoethyl)-2″,6″-dimethylphenoxy]-N^1-(4′-cyanophenyl)benzene-1,2-diamine]	0.96 ± 0.12 nM	4.92 ± 0.12 nM	46,667	–
COCc1cc(N)c(Nc2ccc(C#N)cc2)cc1Oc1c(C)cc(CCC#N)cc1C [Compound 6k, 5-[4″-(2-Cyanoethyl)-2″,6″-dimethylphenoxy]-N^1-(4′-cyanophenyl)-4-methoxymethylbenzene-1,2-diamine]	3.25 ± 0.23 nM	2.95 ± 0.5 nM	>61,538	–
COC(=O)c1cc(N)c(Nc2ccc(C#N)cc2)cc1Oc1c(OC)cc(CCC#N)cc1OC [Compound 13c, 5-[4″-(2-Cyanoethyl)-2″,6″-dimethoxyphenoxy]-N^1-(4′-cyanophenyl)-4-methoxycarbonylbenzene-1,2-diamine]	–	–	–	at least 20 fold
CNC(=O)c1cc(N)c(Nc2ccc(C#N)cc2)cc1Oc1c(OC)cc(CCC#N)cc1OC [Compound 13d, 5-[4″-(2-Cyanoethyl)-2″,6″-dimethoxyphenoxy]-N^1-(4′-cyanophenyl)-4-methylcarbamoylbenzene-1,2-diamine]	–	–	–	at least 20 fold

Reference: paper PMC5206802 (Journal of medicinal chemistry, 2016)
